BigSolDB 2.1

CN1C(C(=O)Nc2ccccn2)=C(O)c2sc(Cl)cc2S1(=O)=O
Details	solubility (mole fraction)
in PEG-400, 298.15 K	0.00861
in PEG-400, 303.15 K	0.0099
in PEG-400, 308.15 K	0.0112
in PEG-400, 313.15 K	0.013
in PEG-400, 323.15 K	0.0171

in water
Details	solubility (mole fraction)
298.15 K	2.9e-06
303.15 K	4.11e-06
308.15 K	5.62e-06
313.15 K	7.41e-06
323.15 K	1.2e-05
